From PubChem BioAssay AID256 (DTP/NCI, 2004)
Values joined by “and” are separate entries in the source; they are usually repeats but may differ in a detail not shown here. Identical values can stand only once. Toxic doses and inconclusive results are not listed. The calls were made as follows: active = survival T/C of 150% or more; inactive = T/C below 125% in these data.

Tested on: CD2F1 mice, L1210 leukemia ip, survival T/C
Experiment: NCI In Vivo Anticancer Drug Screen. Data for tumor model L1210 Leukemia (intraperitoneal) in CD2F1 (CDF1) mice
Details: higher = longer survival
Method in brief: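 Ratio T/C, where T is the treated-group value and C the vehicle-dosed control value, from mice implanted with a transplantable tumor.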

[1] = endpoint: median survival time, dose: 25.0 mg/kg/injection, schedule: Q04DX003 (ip), vehicle: saline with Tween-80
[2] = endpoint: mean survival time, dose: 100.0 mg/kg/injection, schedule: Q04DX003 (ip), vehicle: saline
[3] = endpoint: mean survival time, dose: 100.0 mg/kg/injection, schedule: Q01DX009 (ip), vehicle: other
[4] = endpoint: mean survival time, dose: 200.0 mg/kg/injection, schedule: Q01DX009 (ip), vehicle: other
[5] = endpoint: mean survival time, dose: 12.5 mg/kg/injection, schedule: Q01DX009 (ip), vehicle: other
[6] = endpoint: mean survival time, dose: 25.0 mg/kg/injection, schedule: Q01DX009 (ip), vehicle: other
[7] = endpoint: mean survival time, dose: 50.0 mg/kg/injection, schedule: Q01DX009 (ip), vehicle: other
[8] = endpoint: mean survival time, dose: 75.0 mg/kg/injection, schedule: Q01DX001 (ip), vehicle: other
[9] = endpoint: mean survival time, dose: 100.0 mg/kg/injection, schedule: Q01DX001 (ip), vehicle: saline
[10] = endpoint: mean survival time, dose: 150.0 mg/kg/injection, schedule: Q01DX001 (ip), vehicle: other
[11] = endpoint: mean survival time, dose: 100.0 mg/kg/injection, schedule: Q04DX002 (ip), vehicle: saline
[12] = endpoint: mean survival time, dose: 200.0 mg/kg/injection, schedule: Q04DX002 (ip), vehicle: saline
[13] = endpoint: mean survival time, dose: 400.0 mg/kg/injection, schedule: Q04DX002 (ip), vehicle: saline
[14] = endpoint: mean survival time, dose: 100.0 mg/kg/injection, schedule: Q04DX002 (ip), vehicle: saline with Tween-80
[15] = endpoint: mean survival time, dose: 100.0 mg/kg/injection, schedule: Q01DX009 (ip), vehicle: saline with Tween-80
[16] = endpoint: mean survival time, dose: 200.0 mg/kg/injection, schedule: Q01DX009 (ip), vehicle: saline with Tween-80
[17] = endpoint: mean survival time, dose: 400.0 mg/kg/injection, schedule: Q01DX009 (ip), vehicle: saline with Tween-80
[18] = endpoint: mean survival time, dose: 100.0 mg/kg/injection, schedule: Q04DX003 (ip), vehicle: saline with Tween-80
[19] = endpoint: mean survival time, dose: 200.0 mg/kg/injection, schedule: Q04DX003 (ip), vehicle: saline with Tween-80
[20] = endpoint: mean survival time, dose: 400.0 mg/kg/injection, schedule: Q04DX003 (ip), vehicle: saline with Tween-80
[21] = endpoint: mean survival time, dose: 200.0 mg/kg/injection, schedule: Q01DX001 (ip), vehicle: saline

Measured: T/C

COC1OC(OC2OC=C3C(=O)OC4CC(C)C2C34)C(O)C(O)C1O (stereo unspecified)
inactive: endpoint: median survival time, dose: 4.0 mg/kg/injection, schedule: Q01DX005 (ip), vehicle: Klucel (hydroxypropylcellulose) (HPC) 104 % of control | endpoint: median survival time, dose: 8.0 mg/kg/injection, schedule: Q01DX005 (ip), vehicle: Klucel (hydroxypropylcellulose) (HPC) 101 % of control | endpoint: median survival time, dose: 16.0 mg/kg/injection, schedule: Q01DX005 (ip), vehicle: Klucel (hydroxypropylcellulose) (HPC) 104 % of control | endpoint: median survival time, dose: 32.0 mg/kg/injection, schedule: Q01DX005 (ip), vehicle: Klucel (hydroxypropylcellulose) (HPC) 109 % of control

OC1(c2ccccc2)CCN(C/C=C/c2ccc(Cl)cc2)CC1
inactive: [1] 100 % of control | endpoint: median survival time, dose: 50.0 mg/kg/injection, schedule: Q04DX003 (ip), vehicle: saline with Tween-80 90 % of control

Oc1c(Cl)c(Cl)c(Cl)c(Cl)c1Cl (tested in a mixture with another compound)
inactive: endpoint: mean survival time, dose: 25.0 mg/kg/injection, schedule: Q04DX003 (ip), vehicle: saline 96 % of control | endpoint: mean survival time, dose: 50.0 mg/kg/injection, schedule: Q04DX003 (ip), vehicle: saline 103 % of control | [2] 96 % of control

CCOC(=O)Nc1ccc(F)cc1
inactive: [3] 98 % of control | [4] 98 % of control | endpoint: mean survival time, dose: 400.0 mg/kg/injection, schedule: Q01DX009 (ip), vehicle: other 107 % of control

[N-]=[N+]=NCC(=O)N1c2ccccc2Sc2ccccc21
inactive: [5] 95 % of control | [6] 103 % of control | [7] 98 % of control | [3] 101 % of control | [4] 95 % of control

CN1CCc2cc3c(cc2C1)OCO3
inactive: [8] 98 % of control | [9] 97 % of control | [10] 92 % of control

Cc1cc(=O)ncn1C
inactive: [11] 101 % of control | [12] 97 % of control | [13] 101 % of control

O=NN(CCCl)C(=O)Nc1ccccn1
inactive: endpoint: mean survival time, dose: 12.5 mg/kg/injection, schedule: Q01DX001 (ip), vehicle: other 101 % of control | endpoint: mean survival time, dose: 25.0 mg/kg/injection, schedule: Q01DX001 (ip), vehicle: other 94 % of control | endpoint: mean survival time, dose: 50.0 mg/kg/injection, schedule: Q01DX001 (ip), vehicle: other 101 % of control | endpoint: mean survival time, dose: 100.0 mg/kg/injection, schedule: Q01DX001 (ip), vehicle: other 96 % of control

CC(=O)Nc1nnc(Cl)s1
inactive: [11] 101 % of control | [12] 97 % of control | [13] 104 % of control

COc1c(C)c2c(c3c1CC(=O)O3)C(=O)OC2
inactive: [14] 108 % of control | endpoint: mean survival time, dose: 200.0 mg/kg/injection, schedule: Q04DX002 (ip), vehicle: saline with Tween-80 112 % of control | endpoint: mean survival time, dose: 400.0 mg/kg/injection, schedule: Q04DX002 (ip), vehicle: saline with Tween-80 112 % of control

CC(=O)OCC(C)CCC(=O)C(C)C1C(=O)CC2C3CC=C4CC(OC(C)=O)CCC4(C)C3CCC21C (stereo unspecified)
inactive: [15] 100 % of control | [16] 97 % of control | [17] 91 % of control

C=CC(=O)OCCCS(=O)(=O)[O-].C=CC(=O)OCCCS(=O)(=O)[O-].NC1CCCCC1N.[Pt+4]
inactive: endpoint: median survival time, dose: 3.12 mg/kg/injection, schedule: Q04DX003 (ip), vehicle: saline with Tween-80 108 % of control | endpoint: median survival time, dose: 6.25 mg/kg/injection, schedule: Q04DX003 (ip), vehicle: saline with Tween-80 119 % of control and 109 % of control | endpoint: median survival time, dose: 12.5 mg/kg/injection, schedule: Q04DX003 (ip), vehicle: saline with Tween-80 119 % of control and 109 % of control | [1] 113 % of control and 120 % of control
active: endpoint: median survival time, dose: 100.0 mg/kg/injection, schedule: Q04DX003 (ip), vehicle: saline with Tween-80 158 % of control and 168 % of control | endpoint: median survival time, dose: 200.0 mg/kg/injection, schedule: Q04DX003 (ip), vehicle: saline with Tween-80 204 % of control and 301 % of control

CC(=O)C1CCC2C3=CC=C4CC(OC(=O)CCC(C)C)CCC4(C)C3CCC12C (stereo unspecified)
inactive: [15] 105 % of control | [16] 97 % of control | [17] 101 % of control

CC1(C)CC(O)CC(C)(C)N1O
inactive: endpoint: mean survival time, dose: 50.0 mg/kg/injection, schedule: Q01DX009 (ip), vehicle: saline with Tween-80 102 % of control | [15] 103 % of control | [2] 97 % of control | [16] 96 % of control | endpoint: mean survival time, dose: 200.0 mg/kg/injection, schedule: Q04DX003 (ip), vehicle: saline 94 % of control | endpoint: mean survival time, dose: 400.0 mg/kg/injection, schedule: Q04DX003 (ip), vehicle: saline 97 % of control

CN(C)[C@@H]1C(=O)C(C(N)=O)=C(O)[C@]2(O)C(=O)C3C(=O)c4c(O)ccc(Cl)c4[C@](C)(O)[C@H]3C[C@@H]12 (stereo partly specified)
inactive: endpoint: mean survival time, dose: 50.0 mg/kg/injection, schedule: Q01DX009 (ip), vehicle: Klucel (hydroxypropylcellulose) (HPC) 107 % of control | endpoint: mean survival time, dose: 100.0 mg/kg/injection, schedule: Q01DX009 (ip), vehicle: Klucel (hydroxypropylcellulose) (HPC) 118 % of control | endpoint: mean survival time, dose: 225.0 mg/kg/injection, schedule: Q01DX009 (ip), vehicle: acetone 101 % of control

CCCCCCCC/C=C/CCCCCC1CCCC(C)N1 (stereo unspecified)
inactive: endpoint: mean survival time, dose: 50.0 mg/kg/injection, schedule: Q04DX002 (ip), vehicle: saline with Tween-80 98 % of control and 102 % of control | [14] 94 % of control

CC(=O)Nc1nc(Cl)nc2c1ncn2Cc1ccccc1
inactive: [8] 95 % of control | [10] 96 % of control

C(=N\Nc1nc2ccccc2s1)/c1ccc2ccccc2n1
inactive: endpoint: mean survival time, dose: 100.0 mg/kg/injection, schedule: Q04DX003 (ip), vehicle: Klucel (hydroxypropylcellulose) (HPC) 95 % of control | endpoint: mean survival time, dose: 200.0 mg/kg/injection, schedule: Q04DX003 (ip), vehicle: Klucel (hydroxypropylcellulose) (HPC) 94 % of control | endpoint: mean survival time, dose: 400.0 mg/kg/injection, schedule: Q04DX003 (ip), vehicle: Klucel (hydroxypropylcellulose) (HPC) 94 % of control

Nc1ccc(-c2ccc(N)cc2)cc1
inactive: [15] 94 % of control | [18] 101 % of control | [16] 90 % of control | [19] 101 % of control | [17] 100 % of control | [20] 96 % of control

CN(C)CCCNC1CCC(NCCCN(C)C)CC1 (stereo unspecified)
inactive: endpoint: mean survival time, dose: 25.0 mg/kg/injection, schedule: Q01DX009 (ip), vehicle: saline 96 % of control | [2] 98 % of control

Cc1ccc(S(=O)(=O)OCCc2cccc3ccccc23)cc1
inactive: [9] 101 % of control | [21] 101 % of control | endpoint: mean survival time, dose: 400.0 mg/kg/injection, schedule: Q01DX001 (ip), vehicle: saline 98 % of control

Clc1ccc2c(Cl)c3c(nc2c1)CCCC3
inactive: [9] 100 % of control | [21] 100 % of control

CCCCCC/C=C\C(=O)O
inactive: endpoint: mean survival time, dose: 50.0 mg/kg/injection, schedule: Q01DX009 (ip), vehicle: saline 101 % of control | endpoint: mean survival time, dose: 100.0 mg/kg/injection, schedule: Q01DX009 (ip), vehicle: saline 97 % of control | [18] 98 % of control | endpoint: mean survival time, dose: 200.0 mg/kg/injection, schedule: Q01DX009 (ip), vehicle: saline 93 % of control | [19] 93 % of control | [20] 87 % of control

CC1(C)N=C(N)N=C(N)N1c1cccc(OCCOc2ccc(NC(=O)CBr)cc2)c1
inactive: endpoint: mean survival time, dose: 6.25 mg/kg/injection, schedule: Q01DX009 (ip), vehicle: other 102 % of control | [5] 113 % of control | [6] 110 % of control | [7] 113 % of control

CCOC(=O)CCC(NC(=O)c1cccc(N(C)C=O)c1)C(=O)OCC (stereo unspecified)
inactive: endpoint: mean survival time, dose: 100.0 mg/kg/injection, schedule: Q01DX001 (ip), vehicle: saline with Tween-80 110 % of control | [18] 100 % of control | endpoint: mean survival time, dose: 200.0 mg/kg/injection, schedule: Q01DX001 (ip), vehicle: saline with Tween-80 110 % of control | [19] 100 % of control | endpoint: mean survival time, dose: 400.0 mg/kg/injection, schedule: Q01DX001 (ip), vehicle: saline with Tween-80 113 % of control | [20] 98 % of control

CN1CC(C(=O)NC(C)(C)C)CC(c2ccccc2)C1 (stereo unspecified)
inactive: endpoint: mean survival time, dose: 6.25 mg/kg/injection, schedule: Q01DX001 (ip), vehicle: saline with Tween-80 102 % of control | endpoint: mean survival time, dose: 12.5 mg/kg/injection, schedule: Q01DX001 (ip), vehicle: saline with Tween-80 106 % of control | endpoint: mean survival time, dose: 25.0 mg/kg/injection, schedule: Q01DX001 (ip), vehicle: saline with Tween-80 100 % of control

CC(C)(C)NC(=S)Nc1ccccc1
inactive: endpoint: mean survival time, dose: 50.0 mg/kg/injection, schedule: Q04DX003 (ip), vehicle: saline with Tween-80 100 % of control | [18] 94 % of control | [19] 91 % of control
